From ChEMBL document CHEMBL1156829 (Proc Natl Acad Sci U S A, 2008)

Assays:
Plasmodium falciparum [1] = experiment: NOVARTIS: Inhibition of Plasmodium falciparum W2 (drug-resistant) proliferation in erythrocyte-based infection assay; format: functional, organism-based; conditions: Plasmodium falciparum, W2; read-out: EC50
Plasmodium falciparum [2] = experiment: NOVARTIS: Inhibition of Plasmodium falciparum 3D7 (drug-susceptible) proliferation in erythrocyte-based infection assay; format: functional, organism-based; conditions: Plasmodium falciparum, 3D7
[3] = NOVARTIS: Cytotoxicity against human hepatocellular carcinoma cell line (Huh7); format: toxicity, cell-based, Huh-7; conditions: Huh7 cells (hepatocellular carcinoma cell line)

| Compound | EC50 (Plasmodium falciparum [1]) [nM] | EC50 (Plasmodium falciparum [2]) [nM] | CC50 [3] [nM] |
| --- | --- | --- | --- |
| C=CC1CN2CCC1CC2C(O)c1ccnc2ccc(OC)cc12 (stereo not drawn) | 54.2 | 11.8 | 82500 |
| COc1ccc(NC(=O)C2c3ccccc3C(=O)N(CC(C)C)C2c2cccs2)cc1OC (stereo not drawn) | 68.8 | 76 | > 100000 |
| CC[C@]1(C2OC(C3O[C@](O)(CO)[C@@H](C)C[C@H]3C)C[C@H]2C)CCC([C@@]2(C)CC[C@@]3(C[C@@H](O)[C@H](C)C([C@H](C)[C@H](OC)C(C)C(=O)O)O3)O2)O1 (stereo partly drawn) | < 0.868 | 2.79 | 1290 |
| CC1=C(C(=O)OC(C)C)C(c2ccccc2Cl)C2=C(CC(c3ccccc3)CC2=O)N1 (stereo not drawn) | 38.4 | 297 | > 64200 |
| Cc1ccc(C2Sc3ccccc3NC3=C2C(=O)c2ccccc23)cc1 (stereo not drawn) | 46.4 | 249 | 68600 |
| CCCCCc1ccc(OCCOCC[n+]2ccccc2)c(CCCCC)c1 | 6.85 | 7.08 | > 10000 |
| CC1(C)C2CCC(C2)C1(C)NC(=S)NN=Cc1ccccn1 (stereo not drawn) | 38.2 | 34.8 | 54700 |
| Cc1cc(Nc2ccc(OCc3ccccc3)cc2)nc2cc(O)ccc12 | 11.9 | 73.6 | 17200 |
| COC(=O)C1=C(C)NC2=C(C(=O)CC(c3ccc(OC)c(OC)c3)C2)C1c1cccs1 (stereo not drawn) | 70.9 | 130 | > 100000 |
| COC(=O)C1=C(C)NC(=Cc2cc(C)n(-c3cc(C)ccc3OC)c2C)C1=O | 70.4 | 34.8 | > 100000 |
| Cc1ccn2c(NC(C)(C)CC(C)(C)C)c(-c3ccccc3OC(=O)C(C)(C)C)nc2c1 | < 7.9 | 520 | > 11100 |
| COc1ccc(C2CC(=O)C3=C(C2)NC(C)=C(C(=O)OC2CCCC2)C3c2ccccc2OC)cc1OC (stereo not drawn) | 72.8 | 212 | > 100000 |
| COCCOC(=O)C1=C(C)NC2=C(C(=O)CC(c3ccc(OC)c(OC)c3)C2)C1c1cccc(Cl)c1Cl (stereo not drawn) | 58 | 178 | > 100000 |
| CCOC(=O)C1=C(C)NC2=C(C(=O)C(C(=O)OCC)C(c3cccc(OC)c3)C2)C1c1ccc([N+](=O)[O-])cc1 (stereo not drawn) | 37.2 | 54.2 | > 54600 |
| NC(Cc1ccccc1)C(=O)N1CCn2c(nc(-c3ccccc3)c2Nc2ccc3c(c2)OCO3)C1 (stereo not drawn) | 29.1 | 30.4 | 42800 |
| CC(C)c1nc(N2CCN(C(=O)Nc3ccccc3)CC2)c(C#N)c2c1COC(C)(C)C2 | 67.7 | 53.8 | > 100000 |
| CCCCCCCC(=O)N(C)CCCNc1ccnc2cc(Cl)ccc12 | < 5.87 | 242 | > 9690 |
| C/C=C/C(C(=O)NCCCC)N1C(=O)c2cc(NC(C)=O)ccc2NC(=O)[C@@H]1C (stereo partly drawn) | 4.57 | 199 | 7590 |
| COCCOC(=O)C1=C(C)NC2=C(C(=O)CC(c3ccc(OC)cc3)C2)C1c1ccc(F)cc1 (stereo not drawn) | 59 | 161 | > 100000 |
| CCCOC(=O)C1=C(C)NC2=C(C(=O)CC(c3ccc(OC)c(OC)c3)C2)C1c1cccc([N+](=O)[O-])c1 (stereo not drawn) | 36.4 | 145 | > 62400 |
| CC1CCN(C2=C(NC3CCCC3)C(=O)c3ccccc3C2=O)CC1 | 14.2 | 9.08 | 24400 |
| CCOC(=O)C1=C(C)NC2=C(C(=O)CC(c3ccc(OC)cc3)C2)C1c1ccsc1 (stereo not drawn) | 62 | 302 | > 100000 |
| Cc1ccc2c(Cl)c(C(=O)N3CC(C)OC(C)C3)sc2c1 (stereo not drawn) | 72 | 102 | > 100000 |
| COc1ccc(C2CC(=O)C3=C(C2)NC(C)=C(C(=O)OC2CCCCC2)C3c2ccc([N+](=O)[O-])cc2)cc1OC (stereo not drawn) | 61.7 | 194 | > 100000 |
| COc1cccc(C(=O)Oc2ccccc2-c2nc3cc(C)ccn3c2NC(C)(C)CC(C)(C)C)c1 | 6.15 | 986 | > 10000 |
| O=C(Cc1ccccc1)NCc1ccc(Nc2c(-c3cccnc3)nc3ccccn23)cc1 | < 6.13 | 34.2 | > 10000 |

| Compound | EC50 (Plasmodium falciparum [1]) [nM] | EC50 (Plasmodium falciparum [2]) [nM] | CC50 [3] [nM] |
| --- | --- | --- | --- |
| COc1ccc(CCN2C(=S)NC3c4cccc(OC)c4OC2(C)C3C(=O)Nc2ccc(C)cc2C)cc1OC (stereo not drawn) | 68.7 | 320 | > 100000 |
| Cc1noc(C)c1S(=O)(=O)N(Cc1ccccc1)CC(O)CN1CCC(NC(=O)c2cccc3ccccc23)C1 (stereo not drawn) | < 6.52 | 127 | > 10000 |
| Cc1ccn2c(NC(C)(C)CC(C)(C)C)c(-c3ccccc3OC(=O)c3ccccc3F)nc2c1 | 6.35 | 951 | > 10000 |
| CC1(C)C2CCC1(C)C(NCc1ccccc1O)C2 (stereo not drawn) | 31.8 | 107 | 48600 |
| CCOC(=O)C1=C(C)NC2=C(C(=O)CC(c3ccc(OC)c(OC)c3)C2)C1c1cccc(Br)c1 (stereo not drawn) | 65.9 | 171 | > 100000 |
| COc1cc(COc2cc(N)c(Cl)cc2C(=O)CCC2CCN(CCNS(C)(=O)=O)CC2)cc(OC)c1 | < 8.52 | > 788 | > 13000 |
| COc1cccc(-c2cc(C(=O)Nc3cc(Cl)ccc3O)on2)c1 | 65 | 906 | > 100000 |
| COc1ccc(C2CC(=O)C3=C(C2)NC(=O)CC3c2ccc([N+](=O)[O-])cc2)cc1OC (stereo not drawn) | 64.9 | 346 | > 100000 |
| CCOC(=O)C1=C(C)NC2=C(C(=O)CC(c3ccc(OC)c(OC)c3)C2)C1c1ccc([N+](=O)[O-])cc1 (stereo not drawn) | 64 | 180 | > 100000 |
| COc1ccc(CNCc2cc(-c3ccnc4cc(Cl)ccc34)ccc2O)c(OC)c1 | 38.3 | 951 | 59200 |
| CCOC(=O)C1=C(C)NC2=C(C(=O)CC(C)(C)C2)C1c1ccc(Cl)cc1 (stereo not drawn) | 67.6 | 116 | > 100000 |
| CC1CC(C)CN(C(=O)c2sc3ccccc3c2Cl)C1 (stereo not drawn) | 64.5 | 35.7 | > 100000 |
| COC(=O)C1=C(C)NC(=Cc2cc(C)n(-c3ccccc3C(F)(F)F)c2C)C1=O | 71 | 21.8 | > 100000 |
| CC(C)(C)NCC(O)Cn1c2ccc(Br)cc2c2cc(Br)ccc21 (stereo not drawn) | 14.1 | 213 | 20700 |
| c1ccc(Cc2cc[n+](Cc3ccccc3)cc2)cc1 | 72.5 | 144 | > 100000 |
| CCOC(=O)c1c(C)nc2c(c1C)c(=O)oc1ccccc12 | 70.5 | > 12500 | > 100000 |
| CCOC(=O)C1=C(C)NC2=C(C(=O)C(C(=O)OC)C(C)C2)C1c1cc(Br)c(OC)c(OCC)c1 (stereo not drawn) | 72.7 | 700 | > 100000 |
| CCN1c2ccc([N+](=O)[O-])cc2N(CC)C1(C)c1ccccc1 (stereo not drawn) | 39.7 | 204 | 67600 |
| CCC(C)OC(=O)C1=C(C)NC2=C(C(=O)CC(c3ccc(Cl)cc3)C2)C1c1ccccc1F (stereo not drawn) | 58.3 | 205 | > 100000 |
| COC(=O)c1c(-c2c(Cl)cccc2Cl)noc1/C=C/Nc1ccccc1 | < 6.76 | 290 | > 10000 |
| CCC(C)(C)n1nnnc1C(c1cc2ccc(C)cc2[nH]c1=O)N1CCN(c2ccccc2)CC1 (stereo not drawn) | 61.4 | 453 | > 100000 |
| CC(=O)N1c2ccc([N+](=O)[O-])cc2C(C)(c2ccccc2)CC1(C)C (stereo not drawn) | 61.2 | 1100 | > 100000 |
| COc1cc(-c2cc(C(F)(F)F)n3ncc(C(=O)Nc4cc(C)ccc4O)c3n2)cc(OC)c1OC | 70 | 180 | > 100000 |
| CCCCCCCSc1nsc(NC(=O)CCC)n1 | < 6.51 | > 1310 | > 10000 |
| CC(C)OCCCNc1sc(S(=O)(=O)c2ccccc2)nc1S(=O)(=O)c1ccc(Cl)cc1 | 58.1 | 94.1 | > 100000 |
